Reference: paper PMC7441158 (Nature Communications, 2020)

Assays:
[1] = tested on: dipeptidyl peptidase IV (DPP-IV); assay: DPP-IV (R&D Systems) in 50 mM Tris, pH 8.0; details: 37 °C, up to 24 h
[2] = cited from earlier work
neprilysin (NEP) [3] = assay: NEP (R&D Systems) in 50 mM Tris, 0.05% Brij-35, pH 9.0; details: 37 °C, up to 24 h
neprilysin (NEP) [4] = target: T1, neprilysin (NEP) (Homo sapiens, UniProt P08473); assay: In vitro degradation by neprilysin, MALDI-TOF timecourse assay; assay type: in vitro ADME; details: sialylated ST O-glycan structure, 15 µM peptide, 37 °C, pH 9.0, NEP 20 ng/μL (PYY), 150 pg/μL (GAL)
T1 construct: purchased R&D Systems

[5] = Half-life of native and glycosylated GLP-1 isoforms in rats; details: anesthetized male Wistar rats, i.v. bolus 20 nmol/kg; for half-life t1/2 in circulation: n = 8 per group, total GLP-1 in plasma (assay against amidated C-terminus: intact 7–36 amide and metabolites), one-phase decay, linear model on ln-transformed data; for detectability in circulation after injection (in words): total GLP-1 assay, plasma sampled up to 60 min
Method: Male Wistar rats (≈250 g) were obtained from Janvier (Saint Berthevin Cedex, France) and housed in pairs under standard conditions with ad libitum access to chow and water. Rats were acclimatized for at least 1 week before the study. Studies were carried out on two occasions, matching on each occasion the number of rats in each group, while at the same time avoiding rats from the same cage receiving the same test solution. […] On the day of study, non-fasted rats were anesthetized by a subcutaneous injection with Hypnorm/Midazolam (0.3 ml per 100 g body weight) and placed on a heated operating table (37 °C). The abdominal cavity was opened by a midline incision and a plastic catheter was inserted in the portal vein. Blood was collected (∼300 µl per timepoint) through the catheter into ice cold EDTA-coated tubes that were immediately placed one ice. Samples were collected at timepoint −5, 0, 1, 2, 5, 10, 15, 25, 45, and 60 min. In between samples, ∼200 µL PBS were injected to flush the catheter and replace lost fluid. […] At end of study, rats were sacrificed by diaphragm perforation.
Only data points represented by n > 4 were included in the analysis. To test the difference in rate constant (k), a multiple linear model (lm) was fitted to the pooled data with glycoform set as interaction (lm, Concentration ∼ Timepoint * Glycoform).

[6] = intact GLP-1 (7–36 amide); cited from earlier work

T1 sequence (P08473 whole entry, species assumed): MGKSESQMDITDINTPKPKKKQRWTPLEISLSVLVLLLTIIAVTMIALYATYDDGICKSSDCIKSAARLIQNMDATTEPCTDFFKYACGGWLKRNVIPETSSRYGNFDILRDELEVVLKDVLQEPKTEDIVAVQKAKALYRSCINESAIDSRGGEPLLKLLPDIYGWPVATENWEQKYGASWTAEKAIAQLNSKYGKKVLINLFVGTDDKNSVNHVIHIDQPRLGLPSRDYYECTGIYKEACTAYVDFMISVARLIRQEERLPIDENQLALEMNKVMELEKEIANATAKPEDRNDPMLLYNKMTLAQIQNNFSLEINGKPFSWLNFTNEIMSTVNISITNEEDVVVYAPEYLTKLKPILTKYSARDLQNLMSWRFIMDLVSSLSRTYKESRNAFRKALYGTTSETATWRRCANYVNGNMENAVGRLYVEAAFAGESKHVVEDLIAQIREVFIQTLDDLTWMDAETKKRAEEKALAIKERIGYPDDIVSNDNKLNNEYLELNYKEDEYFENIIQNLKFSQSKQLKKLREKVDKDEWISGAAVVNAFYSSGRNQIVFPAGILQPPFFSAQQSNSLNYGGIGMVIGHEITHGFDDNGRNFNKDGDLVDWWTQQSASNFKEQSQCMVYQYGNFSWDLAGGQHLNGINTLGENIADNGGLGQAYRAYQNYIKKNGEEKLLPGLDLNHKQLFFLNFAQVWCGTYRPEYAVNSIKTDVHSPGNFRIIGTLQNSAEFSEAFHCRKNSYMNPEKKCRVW

| Compound | not cleaved (neprilysin (NEP) [3]) | half-life t1/2 in circulation [5] [min] | detectability in circulation after injection (in words) [5] | other results |
| --- | --- | --- | --- | --- |
| HAEGTFTSDVSSYLEGQAAKEFIAWLVKGR | −: not susceptible to degradation |  |  | not cleaved [1]: −: not susceptible to degradation; fragment found [2]: 9–36 amide, major |
| CC(=O)N[C@H]1[C@@H](OC[C@H](NC(=O)[C@H](Cc2ccccc2)NC(=O)[C@H](CO)NC(=O)[C@H](CCCNC(=N)N)NC(=O)[C@H](Cc2c[nH]cn2)NC(=O)[C@H](CC(N)=O)NC(=O)CNC(=O)[C@@H](NC(=O)[C@H](C)NC(=O)[C@H](Cc2c[nH]cn2)NC(=O)[C@@H]2CCCN2C(=O)CNC(=O)[C@H](CC(C)C)NC(=O)[C@H](CC(C)C)NC(=O)[C@H](Cc2ccc(O)cc2)NC(=O)CNC(=O)[C@H](C)NC(=O)[C@H](CO)NC(=O)[C@H](CC(N)=O)NC(=O)[C@H](CC(C)C)NC(=O)[C@@H](NC(=O)[C@H](Cc2c[nH]c3ccccc23)NC(=O)CN)[C@@H](C)O)C(C)C)C(=O)N[C@@H](CC(=O)O)C(=O)N[C@@H](CCCCN)C(=O)N[C@@H](CC(N)=O)C(=O)NCC(=O)N[C@@H](CC(C)C)C(=O)N[C@H](C(=O)N[C@@H](CO)C(=O)O)[C@@H](C)O)O[C@H](CO)[C@H](O)[C@@H]1O[C@@H]1O[C@H](CO)[C@H](O)[C@H](O[C@]2(C(=O)O)C[C@H](O)[C@@H](NC(C)=O)[C@H]([C@H](O)[C@H](O)CO)O2)[C@H]1O [Galanin ST] |  |  |  | full-length peptide after incubation with NEP (in words) (neprilysin (NEP) [4]): readily detectable after 24 h |
| CC[C@H](C)[C@H](NC(=O)[C@H](Cc1ccccc1)NC(=O)[C@H](CCC(=O)O)NC(=O)[C@H](CCCCN)NC(=O)[C@H](C)NC(=O)[C@H](C)NC(=O)[C@H](CCC(N)=O)NC(=O)CNC(=O)[C@H](CCC(=O)O)NC(=O)[C@H](CC(C)C)NC(=O)[C@H](Cc1ccc(O)cc1)NC(=O)[C@H](CO)NC(=O)[C@H](CO)NC(=O)[C@@H](NC(=O)[C@H](CC(=O)O)NC(=O)[C@H](CO)NC(=O)[C@@H](NC(=O)[C@H](Cc1ccccc1)NC(=O)[C@@H](NC(=O)CNC(=O)[C@H](CCC(=O)O)NC(=O)[C@H](C)NC(=O)[C@@H](N)Cc1c[nH]cn1)[C@@H](C)O)[C@@H](C)O[C@H]1O[C@H](CO)[C@H](O)[C@H](O[C@@H]2O[C@H](CO)[C@H](O)[C@H](O[C@]3(C(=O)O)C[C@H](O)[C@@H](NC(C)=O)[C@H]([C@H](O)[C@H](O)CO)O3)[C@H]2O)[C@H]1NC(C)=O)C(C)C)C(=O)N[C@@H](C)C(=O)N[C@@H](Cc1c[nH]c2ccccc12)C(=O)N[C@@H](CC(C)C)C(=O)N[C@H](C(=O)N[C@@H](CCCCN)C(=O)NCC(=O)N[C@@H](CCCNC(=N)N)C(N)=O)C(C)C [GLP-1 ST] |  | 22.7 | readily detectable in circulation even after 60 min |  |
| HSDAVFTDNYTRLRKQMAVKKYLNSILN | −: not susceptible to degradation |  |  |  |
| CC[C@H](C)[C@H](NC(=O)[C@H](Cc1ccccc1)NC(=O)[C@H](CCC(=O)O)NC(=O)[C@H](CCCCN)NC(=O)[C@H](C)NC(=O)[C@H](C)NC(=O)[C@H](CCC(N)=O)NC(=O)CNC(=O)[C@H](CCC(=O)O)NC(=O)[C@H](CC(C)C)NC(=O)[C@H](Cc1ccc(O)cc1)NC(=O)[C@H](CO)NC(=O)[C@H](CO)NC(=O)[C@@H](NC(=O)[C@H](CC(=O)O)NC(=O)[C@H](CO)NC(=O)[C@@H](NC(=O)[C@H](Cc1ccccc1)NC(=O)[C@@H](NC(=O)CNC(=O)[C@H](CCC(=O)O)NC(=O)[C@H](C)NC(=O)[C@@H](N)Cc1c[nH]cn1)[C@@H](C)O)[C@@H](C)O)C(C)C)C(=O)N[C@@H](C)C(=O)N[C@@H](Cc1c[nH]c2ccccc12)C(=O)N[C@@H](CC(C)C)C(=O)N[C@H](C(=O)N[C@@H](CCCCN)C(=O)NCC(=O)N[C@@H](CCCNC(=N)N)C(N)=O)C(C)C [GLP-1, glucagon-like peptide 1, reference compound] |  | 2.7 | undetectable after the 15 min timepoint | half-life in circulation, literature [6]: ~ 2 min |
| HSDGTFTSELSRLREGARLQRLLQGLV | −: not susceptible to degradation |  |  |  |
